Measurements from PubChem BioAssay (NCI).
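Assay format: 96-well plates, 48-hour exposure. TGI: concentration producing complete growth inhibition.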

Key:
Assay in all cases: inhibition of tumour cell growth, NCI panel, 48 h
SW-620 colon = tested on: SW-620 colon
OVCAR-8 ovarian = tested on: OVCAR-8 ovarian
RXF 393 renal = tested on: RXF 393 renal
OVCAR-4 ovarian = tested on: OVCAR-4 ovarian
SF-295 CNS = tested on: SF-295 CNS
OVCAR-3 ovarian = tested on: OVCAR-3 ovarian
MALME-3M melanoma = tested on: MALME-3M melanoma
LOX IMVI melanoma = tested on: LOX IMVI melanoma
PC-3 prostate = tested on: PC-3 prostate
MCF7 breast = tested on: MCF7 breast
SK-MEL-28 melanoma = tested on: SK-MEL-28 melanoma
EKVX NSCLC = tested on: EKVX NSCLC
HOP-92 NSCLC = tested on: HOP-92 NSCLC
SK-MEL-5 melanoma = tested on: SK-MEL-5 melanoma
TK-10 renal = tested on: TK-10 renal
ACHN renal = tested on: ACHN renal
786-0 renal = tested on: 786-0 renal
K-562 leukemia = tested on: K-562 leukemia
MDA-MB-435 = tested on: MDA-MB-435
U251 CNS = tested on: U251 CNS
A498 renal = tested on: A498 renal
IGROV1 ovarian = tested on: IGROV1 ovarian
SNB-19 CNS = tested on: SNB-19 CNS
MDA-MB-231 breast = tested on: MDA-MB-231 breast
DU-145 prostate = tested on: DU-145 prostate
SK-OV-3 ovarian = tested on: SK-OV-3 ovarian
SK-MEL-2 melanoma = tested on: SK-MEL-2 melanoma
NCI-H23 lung = tested on: NCI-H23 lung
HCT-15 colon = tested on: HCT-15 colon
UACC-62 melanoma = tested on: UACC-62 melanoma
RPMI-8226 leukemia = tested on: RPMI-8226 leukemia
NCI/ADR-RES ovarian = tested on: NCI/ADR-RES ovarian
HCC-2998 colon = tested on: HCC-2998 colon
NCI-H522 lung = tested on: NCI-H522 lung
SNB-75 CNS = tested on: SNB-75 CNS
UACC-257 melanoma = tested on: UACC-257 melanoma
MOLT-4 leukemia = tested on: MOLT-4 leukemia
NCI-H226 lung = tested on: NCI-H226 lung
HCT-116 colon = tested on: HCT-116 colon
M14 melanoma = tested on: M14 melanoma
CAKI-1 renal = tested on: CAKI-1 renal
KM12 colon = tested on: KM12 colon
A549 NSCLC = tested on: A549 NSCLC
T-47D breast = tested on: T-47D breast
COLO 205 colon = tested on: COLO 205 colon
SF-539 CNS = tested on: SF-539 CNS
CCRF-CEM leukemia = tested on: CCRF-CEM leukemia
HOP-62 NSCLC = tested on: HOP-62 NSCLC
MDA-N = tested on: MDA-N
SN12C renal = tested on: SN12C renal
UO-31 renal = tested on: UO-31 renal
HT29 colon = tested on: HT29 colon
SF-268 CNS = tested on: SF-268 CNS
OVCAR-5 ovarian = tested on: OVCAR-5 ovarian
HS 578T breast = tested on: HS 578T breast
NCI-H460 lung = tested on: NCI-H460 lung
HL-60(TB) leukemia = tested on: HL-60(TB) leukemia
SR leukemia = tested on: SR leukemia

CCCNC(=O)N(C)C(=O)N1N=C(c2ccccc2)C1c1ccccc1 (stereo unspecified)
TGI (SW-620 colon): > 100 µM
TGI (OVCAR-8 ovarian): > 100 µM
TGI (RXF 393 renal): > 100 µM
TGI (OVCAR-4 ovarian): > 100 µM
TGI (SF-295 CNS): > 100 µM
TGI (OVCAR-3 ovarian): > 100 µM
TGI (MALME-3M melanoma): > 100 µM
TGI (LOX IMVI melanoma): > 100 µM
TGI (PC-3 prostate): > 100 µM
TGI (MCF7 breast): > 100 µM
TGI (SK-MEL-28 melanoma): > 100 µM
TGI (EKVX NSCLC): > 100 µM
TGI (HOP-92 NSCLC): > 100 µM
TGI (SK-MEL-5 melanoma): > 100 µM
TGI (TK-10 renal): > 100 µM
TGI (ACHN renal): > 100 µM
TGI (786-0 renal): > 100 µM
TGI (K-562 leukemia): > 100 µM
TGI (MDA-MB-435): > 100 µM
TGI (U251 CNS): > 100 µM
TGI (A498 renal): > 100 µM
TGI (IGROV1 ovarian): > 100 µM
TGI (SNB-19 CNS): > 100 µM
TGI (MDA-MB-231 breast): > 100 µM
TGI (DU-145 prostate): > 100 µM
TGI (SK-OV-3 ovarian): > 100 µM
TGI (SK-MEL-2 melanoma): > 100 µM
TGI (NCI-H23 lung): > 100 µM
TGI (HCT-15 colon): > 100 µM
TGI (UACC-62 melanoma): > 100 µM
TGI (RPMI-8226 leukemia): > 100 µM
TGI (NCI/ADR-RES ovarian): > 100 µM
TGI (HCC-2998 colon): > 100 µM
TGI (NCI-H522 lung): > 100 µM
TGI (SNB-75 CNS): > 100 µM
TGI (UACC-257 melanoma): > 100 µM
TGI (MOLT-4 leukemia): > 100 µM
TGI (NCI-H226 lung): > 100 µM
TGI (HCT-116 colon): > 100 µM
TGI (M14 melanoma): > 100 µM
TGI (CAKI-1 renal): > 100 µM
TGI (KM12 colon): > 100 µM
TGI (A549 NSCLC): > 100 µM
TGI (T-47D breast): > 100 µM
TGI (COLO 205 colon): > 100 µM
TGI (SF-539 CNS): > 100 µM
TGI (CCRF-CEM leukemia): 75.8 µM
TGI (HOP-62 NSCLC): > 100 µM
TGI (MDA-N): > 100 µM
TGI (SN12C renal): > 100 µM
TGI (UO-31 renal): > 100 µM

c1ccc([P+](CCCCCC[P+](c2ccccc2)(c2ccccc2)c2ccccc2)(c2ccccc2)c2ccccc2)cc1
TGI (SW-620 colon): > 100 µM
TGI (HT29 colon): > 100 µM
TGI (OVCAR-8 ovarian): 71.2 µM
TGI (RXF 393 renal): > 100 µM
TGI (OVCAR-4 ovarian): > 100 µM
TGI (SF-295 CNS): > 100 µM
TGI (OVCAR-3 ovarian): > 100 µM
TGI (MALME-3M melanoma): > 100 µM
TGI (LOX IMVI melanoma): 38.6 µM
TGI (PC-3 prostate): > 100 µM
TGI (MCF7 breast): 74.1 µM
TGI (SK-MEL-28 melanoma): > 100 µM
TGI (EKVX NSCLC): > 100 µM
TGI (HOP-92 NSCLC): 66.7 µM
TGI (TK-10 renal): > 100 µM
TGI (SF-268 CNS): > 100 µM
TGI (ACHN renal): > 100 µM
TGI (786-0 renal): > 100 µM
TGI (K-562 leukemia): > 100 µM
TGI (MDA-MB-435): 72.9 µM
TGI (U251 CNS): > 100 µM
TGI (A498 renal): > 100 µM
TGI (IGROV1 ovarian): 30.8 µM
TGI (SNB-19 CNS): > 100 µM
TGI (MDA-MB-231 breast): > 100 µM
TGI (DU-145 prostate): > 100 µM
TGI (SK-OV-3 ovarian): > 100 µM
TGI (NCI-H23 lung): 69.6 µM
TGI (HCT-15 colon): > 100 µM
TGI (UACC-62 melanoma): > 100 µM
TGI (NCI/ADR-RES ovarian): > 100 µM
TGI (HCC-2998 colon): > 100 µM
TGI (NCI-H522 lung): > 100 µM
TGI (SNB-75 CNS): > 100 µM
TGI (UACC-257 melanoma): 8.64 µM
TGI (MOLT-4 leukemia): > 100 µM
TGI (NCI-H226 lung): > 100 µM
TGI (HCT-116 colon): > 100 µM
TGI (M14 melanoma): > 100 µM
TGI (CAKI-1 renal): > 100 µM
TGI (OVCAR-5 ovarian): > 100 µM
TGI (KM12 colon): 63.2 µM
TGI (HS 578T breast): > 100 µM
TGI (A549 NSCLC): > 100 µM
TGI (T-47D breast): > 100 µM
TGI (COLO 205 colon): 13.8 µM
TGI (SF-539 CNS): 39 µM
TGI (CCRF-CEM leukemia): > 100 µM
TGI (HOP-62 NSCLC): > 100 µM
TGI (MDA-N): 54.9 µM
TGI (NCI-H460 lung): > 100 µM
TGI (HL-60(TB) leukemia): 67 µM
TGI (SN12C renal): > 100 µM
TGI (UO-31 renal): > 100 µM
TGI (SR leukemia): > 100 µM
